In patent USRE46511E1, “Fused pyrimidine derivatives for inhibition of tyrosine kinase activity” (HANMI SCIENCE CO., LTD., priority 2010, dated 2017):

Experiments:
[1] = tested on: HCC827 (EGFR DelE746_A750); experiment: Inhibition test for growth of cancer cell expressing EGFR (SRB), HCC827; assay type: cell-based; conditions: Homo sapiens, HCC827, 72 h, HCC827 cells, 72 hours, SRB; read-out: GI50 HCC827 EGFR DelE746_A750;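 further: cells in 96-well plates exposed to tenfold serial dilutions from 100 µM, fixed with trichloroacetic acid, SRB-stained, absorbance read at 540 nm, DMSO under 1%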
[2] = tested on: NCI-H1975 (EGFR L858R/T790M); experiment: Inhibition test for growth of cancer cell expressing EGFR (MTS), NCI-H1975; assay type: cell-based; conditions: Homo sapiens; NCI-H1975 cells, 48 hours, MTS; read-out: GI50 NCI-H1975 EGFR L858R/T790M
Description: A431 cell line was incubated in a high-glucose DMEM (Dulbecco's Modified Eagle's Medium) supplemented with 10% fetal bovine serum (FBS) and 1% penicillin/streptomycin (Gibco BRL), and HCC827 and NCI-H1975 cell lines were incubated in an RPMI medium supplemented with 10% FBS, 1% penicillin/streptomycin and 1% sodium pyruvate.
The cancer cell lines stored in a liquid nitrogen tank were each quickly thawed at 37° C., and centrifuged to remove the medium. The resulting cell pellet was mixed with a culture medium, incubated in a culture flask at 37° C. under 5% CO2 for 2 to 3 days, and the medium was removed. The remaining cells were washed with DPBS (Dulbecco's Phosphate Buffered Saline) and separated from the flask by using Tripsin-EDTA. […] 100 μl of the diluted cell solution was added to each well of a 96-well plate, and incubated at 37° C. under 5% CO2 for 1 day.
In case that the test compound was not soluble in DMSO, 1% HCl was added thereto and treated in a 40° C. water bath for 30 mins until a complete dissolution was attained. The DMSO solution containing test compound was diluted with a culture medium to a final concentration of 100 μM, and then diluted 10 times serially to 10^−6 μM (a final concentration of DMSO was less than 1%).
The medium was removed from each well of the 96-well plate. And then, 100 μl of a test compound solution was added to each well holding the cultured cells, and the plate was incubated at 37° C. under 5% CO2 for 72 hours (except that NCI-H1975 cells were incubated for 48 hours). After removing the medium from the plate, 50 μA of 10% trichloroacetic acid was added to each well, and the plate was kept at 4° C. for 1 hour to fix the cells to the bottom of the plate. The added 10% trichloroacetic acid solution was removed from each well, the plate was dried, 100 μA of an SRB (Sulforhodamine-B) dye solution at a concentration of 0.4% dissolved in 1% acetic acid was added thereto, and the resulting mixture was reacted for 10 mins at room temperature. After removing the dye solution, the plate was washed with water, and well dried. When the dye solution was not effectively removed by water, 1% acetic acid was used. 150 μA of 10 mM trisma base was added to each well, and the absorbance at 540 nm wavelength was determined with a microplate reader.

| GI50 [1] | GI50 [2] | Structure (SMILES) |
| --- | --- | --- |
| < 50 nM | < 50 nM | C=CC(=O)Nc1cccc(Sc2nc(Nc3ccc(N4CCOCC4)c(F)c3)nc3ccsc23)c1 [Example 224] |
| 50 to 100 nM | < 50 nM | C=CC(=O)Nc1cccc(Oc2nc(Nc3ccc(NC(=O)N4CCN(C)CC4)cc3)nc3ccsc23)c1 [Example 172] |
| 50 to 100 nM | < 50 nM | C=CC(=O)Nc1cccc(Oc2nc(Nc3ccc4c(c3)OCCO4)nc3ccsc23)c1 [Example 106] |
| < 50 nM | < 50 nM | C=CC(=O)Nc1cccc(Oc2nc(Nc3ccc(N4CCC(N5CCOCC5)CC4)cc3)nc3ccsc23)c1 [Example 49] |
| < 50 nM | < 50 nM | C=CC(=O)Nc1cccc(Oc2nc(Nc3ccc(OCCN4CCOCC4)c(OC)c3)nc3ccsc23)c1 [Example 116] |
| 50 to 100 nM | < 50 nM | C=CC(=O)Nc1cccc(Oc2nc(Nc3ccc(C(=O)N(C)C)c(Cl)c3)nc3ccsc23)c1 [Example 143] |
| 50 to 100 nM | < 50 nM | C=CC(=O)Nc1cccc(Oc2nc(Nc3ccc(OCCOC)cc3)nc3ccsc23)c1 [Example 61] |
| 50 to 100 nM | < 50 nM | C=CC(=O)Nc1cccc(Oc2nc(Nc3ccc4c(ccn4C)c3)nc3ccsc23)c1 [Example 111] |
| < 50 nM | < 50 nM | C=CC(=O)Nc1cccc(Oc2nc(Nc3ccc(N4CCC(n5ccnc5)CC4)cc3)nc3ccsc23)c1 [Example 46] |
| < 50 nM | < 50 nM | C=CC(=O)Nc1cccc(Sc2nc(Nc3ccc(C4CCN(C)CC4)c(F)c3)nc3ccsc23)c1 [Example 225] |
| 50 to 100 nM | < 50 nM | C=CC(=O)Nc1cccc(Oc2nc(Nc3ccc(C4CCN(C)CC4)cc3OC)nc3ccsc23)c1 [Example 114] |
| < 50 nM | < 50 nM | C=CC(=O)Nc1cccc(Oc2nc(Nc3ccc(C(C)=O)cc3)nc3ccsc23)c1 [Example 77] |
| < 50 nM | 50 to 100 nM | C=CC(=O)Nc1cccc(Oc2nc(Nc3ccc(N4CCN(C(=O)N5CCOCC5)CC4)cc3)nc3ccsc23)c1 [Example 22] |
| < 50 nM | < 50 nM | C=CC(=O)Nc1cccc(Oc2nc(Nc3ccc(OCCN(C)C)c(F)c3)nc3ccsc23)c1 [Example 132] |
| 50 to 100 nM | < 50 nM | C=CC(=O)Nc1cccc(Oc2nc(Nc3ccc(S(=O)(=O)NC4CC4)cc3)nc3ccsc23)c1 [Example 71] |
| < 50 nM | < 50 nM | C=CC(=O)Nc1cccc(Oc2nc(Nc3ccc(C4CCN(C)CC4)c(F)c3)nc3ccoc23)c1 [Example 235] |
| < 50 nM | 50 to 100 nM | C=CC(=O)Nc1cccc(Oc2nc(Nc3ccc(C(=O)N4CCN(S(=O)(=O)CC)CC4)c(Cl)c3)nc3ccsc23)c1 [Example 144] |
| < 50 nM | < 50 nM | C=CC(=O)Nc1cccc(Oc2nc(Nc3ccc(CN4CCC4)cc3)nc3ccsc23)c1 [Example 175] |
| < 50 nM | 50 to 100 nM | C=CC(=O)Nc1cccc(Oc2nc(Nc3ccc(NC(=O)N4CCN(C)CC4)c(F)c3)nc3ccsc23)c1 [Example 201] |
| 50 to 100 nM | < 50 nM | C=CC(=O)Nc1cccc(Oc2nc(Nc3ccc(CCS(C)(=O)=O)cc3)nc3ccsc23)c1 [Example 97] |
| < 50 nM | < 50 nM | C=CC(=O)Nc1cccc(Nc2nc(Nc3ccc(OCCN(C)C)cc3)nc3ccsc23)c1 [Example 211] |

| GI50 [1] | GI50 [2] | Structure (SMILES) |
| --- | --- | --- |
| < 50 nM | < 50 nM | C=CC(=O)Nc1cccc(Oc2nc(Nc3ccc(CCO)cc3)nc3ccsc23)c1 [Example 190] |
| 50 to 100 nM | < 50 nM | C=CC(=O)Nc1cccc(Oc2nc(Nc3ccc(S(C)(=O)=O)cc3)nc3ccsc23)c1 [Example 69] |
| < 50 nM | < 50 nM | C=CC(=O)Nc1cccc(Oc2nc(Nc3ccc(N4CCC(N(C)C)CC4)cc3)nc3ccsc23)c1 [Example 38] |
| < 50 nM | < 50 nM | C=CC(=O)Nc1cccc(Nc2nc(Nc3ccc(C4CCN(C)CC4)c(F)c3)nc3ccsc23)c1 [Example 216] |
| 50 to 100 nM | 50 to 100 nM | C=CC(=O)Nc1cccc(Nc2nc(Nc3ccc(OCCCN(C)C)cc3)nc3ccsc23)c1 [Example 212] |
| 50 to 100 nM | < 50 nM | C=CC(=O)Nc1cccc(Oc2nc(Nc3ccc(CN4CCN(C5CCN(C)CC5)CC4)c(Cl)c3)nc3ccsc23)c1 [Example 202] |
| < 50 nM | < 50 nM | C=CC(=O)Nc1cccc(Oc2nc(Nc3ccc(N4CCN(CC(F)F)CC4)cc3)nc3ccsc23)c1 [Example 15] |
| < 50 nM | 50 to 100 nM | C=CC(=O)Nc1cccc(Nc2nc(Nc3ccc(NC4CCN(C)CC4)c(F)c3)nc3ccsc23)c1 [Example 217] |
| < 50 nM | < 50 nM | C=CC(=O)Nc1cccc(Oc2nc(Nc3ccc(N4CC(C)N(C)C(C)C4)cc3)nc3ccsc23)c1 (stereo not shown) [Example 27] |
| 50 to 100 nM | < 50 nM | C=CC(=O)Nc1cccc(Oc2nc(Nc3ccc(OCCOC)c(F)c3)nc3ccsc23)c1 [Example 131] |
| < 50 nM | < 50 nM | C=CC(=O)Nc1cccc(Oc2nc(Nc3ccc(N4CCC(N5CCCC5)CC4)c(Cl)c3)nc3ccsc23)c1 [Example 138] |
| 50 to 100 nM | 50 to 100 nM | C=CC(=O)Nc1cccc(Oc2nc(Nc3ccc(N4CC(C)OC(C)C4)c(F)c3)nc3ccsc23)c1 (stereo not shown) [Example 123] |
| 50 to 100 nM | < 50 nM | C=CC(=O)Nc1cccc(Oc2nc(Nc3ccc(N4CCN(CC(F)(F)F)CC4)cc3)nc3ccsc23)c1 [Example 16] |
| 50 to 100 nM | 50 to 100 nM | C=CC(=O)Nc1cccc(Oc2nc(Nc3ccc(C(=O)N(C)C)cc3)nc3ccsc23)c1 [Example 84] |
| < 50 nM | < 50 nM | C=CC(=O)Nc1cccc(Oc2nc(Nc3ccc(OC4CCN(C)CC4)c(F)c3)nc3ccsc23)c1 [Example 136] |
| < 50 nM | < 50 nM | C=CC(=O)Nc1cccc(Nc2nc(Nc3ccc(N4CCN(C(C)C)CC4)cc3)nc3ccsc23)c1 [Example 208] |
| < 50 nM | < 50 nM | C=CC(=O)Nc1cccc(Oc2nc(Nc3ccc(OCCN(CC)CC)c(F)c3)nc3ccsc23)c1 [Example 133] |
| 50 to 100 nM | < 50 nM | C=CC(=O)Nc1cccc(Nc2nc(Nc3ccc(CCN4CCN(C)CC4)cc3)nc3ccsc23)c1 [Example 214] |
| < 50 nM | 50 to 100 nM | C=CC(=O)Nc1cccc(Oc2nc(Nc3ccc(N4CCN(CCF)CC4)cc3)nc3ccsc23)c1 [Example 14] |
| < 50 nM | < 50 nM | C=CC(=O)Nc1cccc(Oc2nc(Nc3ccc(N4CCC(C(=O)N(C)C)CC4)cc3)nc3ccsc23)c1 [Example 45] |
| < 50 nM | < 50 nM | C=CC(=O)Nc1cccc(Oc2nc(Nc3ccc(N4CCC(N5CCOCC5)CC4)c(F)c3)nc3ccsc23)c1 [Example 126] |

| GI50 [1] | GI50 [2] | Structure (SMILES) |
| --- | --- | --- |
| < 50 nM | 50 to 100 nM | C=CC(=O)Nc1cccc(Oc2nc(Nc3ccc(N4CCN(CCO)CC4)cn3)nc3ccsc23)c1 [Example 156] |
| < 50 nM | < 50 nM | C=CC(=O)Nc1cccc(Oc2nc(Nc3ccc(N4CCC(n5ccnc5)C4)cc3)nc3ccsc23)c1 (stereo not shown) [Example 35] |
| < 50 nM | < 50 nM | C=CC(=O)Nc1cccc(Oc2nc(Nc3ccc(N4CCN(C(C)(C)C)CC4)cc3)nc3ccsc23)c1 [Example 12] |
| < 50 nM | 50 to 100 nM | C=CC(=O)Nc1cccc(Oc2nc(Nc3ccc(CN4CCC(N(C)C)CC4)c(F)c3)nc3ccsc23)c1 [Example 196] |
| < 50 nM | < 50 nM | C=CC(=O)Nc1cccc(Oc2nc(Nc3ccc(CCN4CCCCC4)cc3)nc3ccsc23)c1 [Example 98] |
| 50 to 100 nM | < 50 nM | C=CC(=O)Nc1cccc(Oc2nc(Nc3ccc(N4CCN(C)CC4)c(F)c3OC)nc3ccsc23)c1 [Example 6] |
| < 50 nM | < 50 nM | C=CC(=O)Nc1cccc(Oc2nc(Nc3ccc(CN(C)C)cc3C)nc3ccsc23)c1 [Example 205] |
| < 50 nM | < 50 nM | C=CC(=O)Nc1cccc(Oc2nc(Nc3ccc(C4(N)CC4)cc3)nc3ccsc23)c1 [Example 160] |
| 50 to 100 nM | 50 to 100 nM | C=CC(=O)Nc1cccc(Oc2nc(Nc3ccc4c(c3)CCCC(=O)N4C)nc3ccsc23)c1 [Example 108] |
| < 50 nM | < 50 nM | C=CC(=O)Nc1cccc(Nc2nc(Nc3ccc(CN4CCCCC4)cc3)nc3ccsc23)c1 [Example 221] |
| < 50 nM | < 50 nM | C=CC(=O)Nc1cccc(Oc2nc(Nc3ccc(N4CCN(CCO)CC4)cc3)nc3ccsc23)c1 [Example 18] |
| < 50 nM | < 50 nM | C=CC(=O)Nc1cccc(Oc2nc(Nc3ccc(N4CCN(C(=O)CN(C)C)CC4)c(F)c3)nc3ccsc23)c1 [Example 119] |
| < 50 nM | < 50 nM | C=CC(=O)Nc1cccc(Nc2nc(Nc3ccc(C4CCN(C)CC4)cc3)nc3ccsc23)c1 [Example 209] |
| < 50 nM | < 50 nM | C=CC(=O)Nc1cccc(Nc2nc(Nc3ccc(C4CCCN(C)C4)cc3)nc3ccsc23)c1 (stereo not shown) [Example 210] |
| < 50 nM | 50 to 100 nM | C=CC(=O)Nc1cccc(Oc2nc(Nc3ccc(C(=O)NC4CCN(C)CC4)c(OC)c3)nc3ccsc23)c1 [Example 118] |
| 50 to 100 nM | 50 to 100 nM | C=CC(=O)Nc1cccc(Oc2nc(Nc3ccc(N4CCN(S(=O)(=O)N(C)C)CC4)cc3)nc3ccsc23)c1 [Example 25] |
| < 50 nM | 50 to 100 nM | C=CC(=O)Nc1cccc(Oc2nc(Nc3ccc(/C=C/CN4CCCCC4)cc3)nc3ccsc23)c1 [Example 102] |
| < 50 nM | < 50 nM | C=CC(=O)Nc1cccc(Oc2nc(Nc3ccc(CCN(C)C)cc3)nc3ccsc23)c1 [Example 191] |
| 50 to 100 nM | < 50 nM | C=CC(=O)Nc1cccc(Oc2nc(Nc3ccc(N4CCN(S(=O)(=O)CC)CC4)c(F)c3)nc3ccsc23)c1 [Example 121] |
| 50 to 100 nM | < 50 nM | C=CC(=O)Nc1cccc(Nc2nc(Nc3ccc(CCN(C)C)cc3)nc3ccsc23)c1 [Example 213] |
